According to patent US7902188B2, “Morpholine dopamine agonists” (Pfizer Inc., priority 2002, dated 2011):

Biological target: T1, human dopamine D2long receptor (Homo sapiens, UniProt P14416)
T1 construct: expressed in transfected cells; host or cells: GH4C1 rat pituitary cells
Test: Inhibition via dopamine D2 receptors of forskolin-stimulated adenylate cyclase activity (cAMP Flashplate, GH4C1/hD2L cells)
Type: cell-based
Conditions: D2 EC50 value divided by D3 EC50 value; where D2 EC50 was >10000, a figure of 10000 was used
Protocol: A suitable assay for determining functionally the activity of a compound at D3 and/or […] dopamine receptors is detailed hereinbelow. Compounds are evaluated as agonists or antagonists at the dopamine D2 and D3 receptors by looking at cAMP levels in a GH4C1 and CHO cell-line expressing the human D2 and D3 receptors, respectively.
Inhibition Via Dopamine D2 Receptors of Forskolin Stimulated Adenylate Cyclase Activity Materials Cell Culture Media:
4× assay stock of 20 μM made by carrying out a 1000-fold dilution in PBS buffer, 25 μl of the 20 μM stock is added to a final assay volume of 100 μl, giving a final assay concentration of 5 μM.
• Pramipexole is included as a reference standard. A 10-point, semi-log curve is generated every 4 plates. Compound responses are normalised to the minimum (0 nM pramipexole) and maximum (100 nM Pramipexole) responses generated by the cells. All test compounds may also be tested via a 10-point (semi-log) curve. • Test compounds are dissolved in 100% DMSO to yield a stock concentration of 10 mM, (1000× the final assay concentration required, e.g. 10 mM will give a top concentration of 10000 nM). • Pramipexole is dissolved in 100% DMSO to give a concentration of 10 mM. […]

T1 sequence (P14416 whole entry): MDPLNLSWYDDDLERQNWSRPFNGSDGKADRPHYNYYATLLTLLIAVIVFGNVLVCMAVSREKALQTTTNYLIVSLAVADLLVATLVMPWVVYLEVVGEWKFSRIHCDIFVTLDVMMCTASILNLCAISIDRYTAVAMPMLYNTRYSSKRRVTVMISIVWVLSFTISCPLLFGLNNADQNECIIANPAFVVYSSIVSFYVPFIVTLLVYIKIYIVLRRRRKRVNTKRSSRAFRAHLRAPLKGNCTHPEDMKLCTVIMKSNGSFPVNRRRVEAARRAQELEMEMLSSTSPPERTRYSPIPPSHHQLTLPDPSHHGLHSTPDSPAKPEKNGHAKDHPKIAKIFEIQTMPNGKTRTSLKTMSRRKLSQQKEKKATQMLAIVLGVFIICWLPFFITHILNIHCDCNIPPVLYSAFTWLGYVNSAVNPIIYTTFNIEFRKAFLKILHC

CCCN1CCO[C@H](c2cccc(O)c2)C1.Cl [Example 8, R-(−)-3-(4-Propylmorpholin-2-yl)phenol hydrochloride]
selectivity for D3 over D2: 1315.8 fold
